Results: patent US20240216344A1, “THIAZOLIDINEDIONE ANALOGS FOR THE TREATMENT OF NAFLD AND METABOLIC DISEASES” (Cirius Therapeutics, Inc., priority 2019, published 2024)

Test system: patients with biopsy-proven NASH with fibrosis and no cirrhosis
Experiment: EMMINENCE Phase 2b trial, liver histology at 12 months
Format: in vivo, human
Settings: for subjects showing NAS histological improvement: PNPLA3 rs738409-G both copies (GG genotype)
Procedure: embodiments, the histological features are measured by a NAFLD Activity Score (NAS). The scoring system comprised 14 histological features, 4 of which are evaluated semi-quantitatively: steatosis (0-3), lobular inflammation (0-2), hepatocellular ballooning (0-2), and fibrosis (0-4). Another nine features are recorded as present or absent. A liver biopsy of the subject is formalin-fixed and paraffin-embedded. Serial sections of the liver biopsy are hematoxylin and eosin (H&E) stained. The liver biopsy stained sections are examined for NAS scores. For example, hepatocellular ballooning is graded from 0 to 2 (0: normal hepatocytes with cuboidal shape and pink eosinophilic cytoplasm; 1: presence of clusters of hepatocytes with a rounded shape and pale cytoplasm usually reticulated. Lobular inflammation is defined as a focus of two or more inflammatory cells within the lobule. Foci are counted at 20 magnification (0: none; 1: 2 foci per 20; 2: >2 foci per 20).
Study Design: EMMINENCE was a randomized, double-blind evaluation of three oral daily doses of MSDC-0602K (62.5 mg, 125 mg and 250 mg) or placebo given for 12 months to adult patients with biopsy-proven NASH with fibrosis and no cirrhosis. The primary efficacy endpoint was assessed at 12 months. Clinic visits were conducted at baseline, 1, 2, 3, 6, 9, and 12 months, followed 2 weeks later by a safety visit. An interim analysis of safety and efficacy not related to the primary and secondary endpoints was conducted when 6 month data were available for 328 patients (see Example 5, above.) Interim results were provided only as summary statistics to avoid any unmasking of the study team or sponsor.
Participants: Eligible patients were at least 18 years old with NASH (NAS≥4; score ≥1 in each component [steatosis, ballooning, inflammation]) with F1 to F3 fibrosis on liver biopsy taken between 9 months prior to screening and randomization according to a central histopathologist.
If no usable liver biopsy was available within 9 months prior to screening, a percutaneous liver biopsy was performed in patients with AST≥20 U/L and FibroScan CAP score ≥270 db/m and kPa≥8.5. Digitized slides were read by a single expert histopathologist according to NASH Clinical Research Network criteria. Baseline biopsies were read first for study qualification and a second time mixed randomly among 12-month biopsies. Fasting blood samples for routine central laboratory analyses were collected at each visit, and frozen samples collected at selected visits for biomarker assays.
Efficacy endpoints: The primary efficacy endpoint was hepatic histological improvement in NAS defined as ≥2-point NAS decrease with a ≥1-point reduction in either ballooning or lobular inflammation and no increase in fibrosis stage at 12 months. Secondary efficacy endpoints included (1) NASH resolution defined as hepatocellular ballooning score of 0 and lobular inflammation score of 0-1 with no increase in fibrosis stage at 12 months, (2) fibrosis improvement defined as ≥1-stage decrease in fibrosis with no worsening of lobular inflammation or hepatocellular ballooning, (3) change from baseline in NAFLD activity score (NAS) and each one of its components (steatosis, lobular inflammation and ballooning) at 12 months, and (4) change from baseline in fibrosis score at 12 months. Exploratory efficacy endpoints included shifts in the central histopathologist's NASH diagnosis confirmation, and changes from baseline to 12 months in markers of glycemic control and insulin sensitivity, liver function/injury, and apoptosis and liver fibrosis.
Using a modified intent-to-treat approach, treated patients were included for analysis in their randomly-assigned treatment groups. Participation of sites with serious GCP or quality concerns were terminated and their data excluded from the analyses. Post-baseline measures through 14 days after the last study drug dose were included. No errors in treatment assignment occurred. […]

[1] = 125 mg and 250 mg combined vs placebo, 12 months
[2] = 125 mg and 250 mg combined, 12 months

COc1cccc(C(=O)COc2ccc(CC3SC(=O)NC3=O)cc2)c1 (stereo not drawn) [MSDC-0602K]
confirmed NASH diagnosis at baseline (re-read) not confirmed at 12 months (62.5 mg): 32.1% | Fibrosis improvement, adjusted OR (62.5 mg vs placebo, 12 months): 1.19 | Fibrosis improvement, adjusted risk difference (62.5 mg vs placebo, 12 months): 0.028 | NAS improvement, adjusted OR (62.5 mg vs placebo, 12 months): 0.89 | NAS improvement, adjusted risk difference (62.5 mg vs placebo, 12 months): −0.020 | NASH resolution, adjusted OR (62.5 mg vs placebo, 12 months): 1.09 | NASH resolution, adjusted risk difference (62.5 mg vs placebo, 12 months): 0.013 | Fibrosis improvement, % of patients (62.5 mg, 12 months): (23.8) % | Fibrosis improvement, n/N (62.5 mg, 12 months): 20/84 | NAS improvement (primary endpoint), n/N (62.5 mg, 12 months): 25/84 | NASH resolution, % of patients (62.5 mg, 12 months): (20.2) % | NASH resolution, n/N (62.5 mg, 12 months): 17/84 | adjusted mean difference in NAS change to 12 months vs placebo (125 mg): −0.6 points | adjusted mean difference in steatosis change to 12 months vs placebo (125 mg): −0.2 points | confirmed NASH diagnosis at baseline (re-read) not confirmed at 12 months (125 mg): 26.5% | Fibrosis improvement, adjusted OR [1]: 1.48 | Fibrosis improvement, adjusted risk difference [1]: 0.073 | NAS improvement, adjusted OR [1]: 1.43 | NAS improvement, adjusted risk difference [1]: 0.075 | NASH resolution, adjusted OR [1]: 1.66 | NASH resolution, adjusted risk difference [1]: 0.093 | Fibrosis improvement, % of patients [2]: (28.6) % | Fibrosis improvement, n/N [2]: 48/168 | NAS improvement (primary endpoint), % of patients [2]: (36.3) % | NAS improvement (primary endpoint), n/N [2]: 61/168 | NASH resolution, % of patients [2]: (29.8) % | NASH resolution, n/N [2]: 50/168 | Fibrosis improvement, adjusted OR (125 mg vs placebo, 12 months): 1.45 | Fibrosis improvement, adjusted risk difference (125 mg vs placebo, 12 months): 0.067 | NAS improvement, adjusted OR (125 mg vs placebo, 12 months): 1.22 | NAS improvement, adjusted risk difference (125 mg vs placebo, 12 months): 0.044 | NASH resolution, adjusted OR (125 mg vs placebo, 12 months): 1.50 | NASH resolution, adjusted risk difference (125 mg vs placebo, 12 months): 0.075 | Fibrosis improvement, % of patients (125 mg, 12 months): (28.0) % | Fibrosis improvement, n/N (125 mg, 12 months): 23/82 | NAS improvement (primary endpoint), n/N (125 mg, 12 months): 27/82 | NASH resolution, % of patients (125 mg, 12 months): (28.0) % | NASH resolution, n/N (125 mg, 12 months): 23/82 | adjusted mean difference in NAS change to 12 months vs placebo (250 mg): −0.5 points | adjusted mean difference in steatosis change to 12 months vs placebo (250 mg): −0.3 points | confirmed NASH diagnosis at baseline (re-read) not confirmed at 12 months (250 mg): 30.2% | Fibrosis improvement, adjusted OR (250 mg vs placebo, 12 months): 1.51 | Fibrosis improvement, adjusted risk difference (250 mg vs placebo, 12 months): 0.077 | NAS improvement, adjusted OR (250 mg vs placebo, 12 months): 1.64 | NAS improvement, adjusted risk difference (250 mg vs placebo, 12 months): 0.104 | NASH resolution, adjusted OR (250 mg vs placebo, 12 months): 1.82 | NASH resolution, adjusted risk difference (250 mg vs placebo, 12 months): 0.108 | Fibrosis improvement, % of patients (250 mg, 12 months): (29.1) % | Fibrosis improvement, n/N (250 mg, 12 months): 25/86 | NAS improvement (primary endpoint), n/N (250 mg, 12 months): 34/86 | NASH resolution, % of patients (250 mg, 12 months): (31.4) % | NASH resolution, n/N (250 mg, 12 months): 27/86 | subjects showing NAS histological improvement (62.5 mg): about 17.9% | subjects showing NAS histological improvement (250 mg): about 34.5%
